In assay [1] the test system is duration of sleep. The assay is described as follows: Narcotic action of phenobarbital, duration of sleep. In kind it is in vivo. As to conditions: phenobarbital control 150 mg/kg. The source says:
The enhancement of the narcotic effect of the barbiturate phenobarbital in “Composition 3,” administered nasally.

Assay [2] concerns catalepsy caused by a single intraperitoneal injection of haloperidol. The assay is described as follows: Spontaneous motor activity in the test "Open Field", catalepsy caused by haloperidol. In kind it is in vivo. The conditions noted are these: sum of movements in Open Field; haloperidol 0.25 mg/kg i.p. alone; male rats. As to the method: The restoration of spontaneous motor activity in rats as the sum of the movements in the test “Open Field” in the experimental model of a catalepsy caused by a single intraperitoneal (i.p.) injection of haloperidol (0.25 mg/kg, “Ratiopharm,” Germany). Dopamine (0.125 mg/kg, Polfa S.A. (Poland) was administered nasally in 50 μl in the solution of the spray once in each nostril in combination with the oxygen anion radicals (SAR) and/or the active substances of the nitrogen oxide according to the present invention (Group IV, “Composition 1”). The experiments were performed on non-purebred male rats having a body mass of 250±37 g.

SMILES strings stand for the structures.

Consider two compounds from patent US20150165033A1, “COMPOSITION FOR NASAL APPLICATION” (BBU-VITA CORP., priority 2012, published 2015).

As for `CCC1(c2ccccc2)C(=O)NC(=O)NC1=O` [Phenobarbital, phenobarbital], in assay [1], the “Duration of sleep” value stood at 192 ± 29.9 min.

Regarding `O=C(CCCN1CCC(O)(c2ccc(Cl)cc2)CC1)c1ccc(F)cc1` [Haloperidol, haloperidol], the “Spontaneous Activity” value in assay [2] turned out to be 3.6 ± 3.4.
